Target: σ1R-σ2R (Mus musculus, UniProt O55242)
Test: In vitro σ1R-σ2R association of recombinant proteins (HaloLink-σ2R, Western blot)
Type: biochemical, murine
Design: The coding region of the full-length murine σ1R (AF004927); GST (N, cleaved yes); made in house; host or cells: E. coli BL21 (KRX)
Conditions: for effect on σ1R-σ2R association: increasing concentrations, 30 min RT, vs control without ligand; for effect on the disruption of σ1R-σ2R associations by β-End 1–31: fixed concentration of β-End 1–31 (or β-End 1–27), increasing competitor; for EC50 to disrupt σ1R-σ2R interactions (range in words): 50 mM Tris-HCl pH 7.4, 0.2% CHAPS, 2.5 mM CaCl2, 30 min RT, n = 3
Method: Figure 7 Effect of β-End 1–31, ^αN-acetyl β-End 1–31 and their N-terminal derivatives on σ1R-σ2R, σ1R-NR1 C1 and σ1R-BiP associations. Amino acid sequence of β-End 1–31 showing derivatives 1–26 and 1–27. (A) HaloLink-attached σ2Rs were incubated for 30 min at RT in the presence of σ1Rs (100 nM) in 300 μL of 50 mM Tris-HCl (pH 7.4), 0.2% CHAPS, and 2.5 mM CaCl2. After removing the unbound σ1R proteins, the effects of increasing the peptide concentrations on σ1R-σ2R associations were studied. At the end of the incubation, protein complexes bound to HaloLink-σ2R were obtained by centrifugation, washed three times, solubilized in 2× Laemmli buffer containing β-mercaptoethanol, resolved by SDS-PAGE, and analyzed by Western blotting (for more details, see Section 4). This protocol was also used to assess the effect of ligands on (B) σ1R-NR1 C1 and (C) σ1R-BiP associations. Data were compared to that of the control, which was obtained in the absence of ligands. (A–C) Data are the mean ± SD, n = 3. (D) The β-End 1–31 structural models were predicted by Novafold (DNASTAR Lasergene protein v.17, Inc., Madison, WI, USA). Ribbon model: The 3D structure, charge distribution and hydrophobicity map of β-End 1–31 are shown. Positive charges are shown in red and negative charges in blue. Polar surfaces are shown in yellow, and nonpolar surfaces are shown in orange. Linear model: the opioid (1–5) and flexible region (8–11) sequences are shown in green and orange, respectively, and the amphiphilic helix (15–25) is shown in pink.
The recombinant σ1R (100 nM) was incubated either with Haloprotein (negative control) or together with the immobilized σ2R, NR1 C0-C1-C2 or BiP proteins in 300 µL of a buffer containing 50 mM Tris-HCl (pH 7.4) and 0.2% CHAPS in the presence of 2.5 mM CaCl2 for 30 min at RT. After removal of the unbound σ1R, the agarose-attached complexes were incubated for 30 min with rotation at RT in the presence of increasing concentrations of the ligands in a final reaction volume of 300 µL [50 mM Tris-HCl (pH 7.4), 2.5 mM CaCl2 and 0.2% CHAPS]. Ligands were usually dissolved in aqueous solutions; however, when an organic solvent such as DMSO was required to incorporate, e.g., pregnenolone sulfate, the solvent remained below 1% in the assay buffer. Agarose pellets containing the bound proteins were obtained by centrifugation, washed and resuspended thrice in the presence of 2.5 mM CaCl2, solubilized in 2× Laemmli buffer plus β-mercaptoethanol, and analyzed by Western blotting.
Because all the assays were performed with recombinant proteins, the immune signals provided a single band of the expected size, which was used for the subsequent densitometry analysis. Accordingly, no other regions of the blots provided information and were routinely excluded from the analysis.
Figure S7. Effect of σ1R agonist/antagonist ligands on σ1R-σ2R heterodimers. (A-C) Agarose (Θ)- attached σ2Rs captured recombinant σ1Rs. After removing unbound σ1R proteins, the Θ-σ2R.σ1R complexes were incubated with a ﬁxed concentration of a selected L1 ligand (indicated in brackets) in the absence and presence of increasing concentrations of competing σ1R ligands as indicated. The σ1Rs that remained attached to the Θ-σ2Rs were evaluated by Western blotting. * Signiﬁcant differences with respect to the control group that was incubated without L1 ligands. ANOVA followed by the Holm-Sidak multiple comparisons test, p < 0.05. For details, see Methods and Figure 6A. Representative blots are […]
Figure S8. Effect of the physiological and nonphysiological sequences of β-End 1-31 and classical σ1R ligands on BiP-σ1R, σ2R-σ1R and NR1 C1-σ1R associations . Agarose-BiP was loaded with σ1Rs, and after the unbound σ1Rs were removed, the agarose-BiP-σ1R complexes were incubated in the absence (control) and presence of increasing concentrations of (A) β-End 1-31 C-terminal physiological derivatives and (B) classical σ1R ligands. C) Agarose-σ2R loaded with σ1Rs was incubated in the […]

σ1R-σ2R, sequence (O55242 whole entry): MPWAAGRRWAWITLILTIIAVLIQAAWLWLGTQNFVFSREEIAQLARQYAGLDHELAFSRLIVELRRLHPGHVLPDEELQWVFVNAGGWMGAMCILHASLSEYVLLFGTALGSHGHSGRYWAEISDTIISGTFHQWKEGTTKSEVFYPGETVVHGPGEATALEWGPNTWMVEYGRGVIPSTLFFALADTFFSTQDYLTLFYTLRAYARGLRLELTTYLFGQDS

Compound | effect on σ1R-σ2R association | also measured
Br.Br.CN(C)CCN(C)CCc1ccc(Cl)c(Cl)c1 [BD1047, N′-[2-(3,4-dichlorophenyl)ethyl]-N,N,N′-trimethylethane-1,2-diamine;dihydrobromide, reference compound] | did the opposite | 
COC(=O)[C@]1(c2ccc(C)cc2)C[C@@H]1CN1CCC(O)(c2ccccc2)CC1 [PPCC, (1R,2S/1S,2R)-2-[4-hydroxy-4-phenylpiperidin-1-yl)methyl]-1-(4-methylphenyl) cyclopropanecarboxylate, reference compound] | impaired σ1R associations with σ2R and BiP | 
Cl.O=C(OCCN1CCOCC1)C1(c2ccccc2)CCCCC1 [PRE084, 2-(4-morpholinethyl)-1-phenylcyclohexanecarboxylate hydrochloride, reference compound] | impaired σ1R associations with σ2R and BiP | 
Cc1cc(OCCN2CCOCC2)nn1-c1ccc2ccccc2c1 [S1RA] | did the opposite | 
KKGE [β-End 28–31, C-terminal tetrapeptide of β-End 1–31] | promoted σ1R-σ2R associations | effect on the disruption of σ1R-σ2R associations by β-End 1–31: counteracted
YKKGE [β-End 27–31, C-terminal pentapeptide of β-End 1–31] | reduced σ1R-σ2R | 
^αN-acetyl β-End 1–31: β-End 1–31 acetylated at N terminal Y1, α position | strengthened | affinity toward σ1R indicated by the potency to counteract the β-End 1–31 effect (competition with β-End 1–31 on σ1R-σ2R (Figure S7A)): fM range; effect on the disruption of σ1R-σ2R associations by β-End 1–31: antagonized
β-End 1–26: β-End 1–31 derivative without 5 C-terminal residues (YGGFMTSEKSQTPLVTLFKNAIIKNA; Beta-endorphin; UniProt P01189 237-262, looked up, fragment) |  | EC50 to disrupt σ1R-σ2R interactions (range in words): low–medium nM range
β-End 1–27: β-End 1–31 derivative without 4 C-terminal residues (YGGFMTSEKSQTPLVTLFKNAIIKNAY; Beta-endorphin; UniProt P01189 237-263, looked up, fragment) |  | EC50 to disrupt σ1R-σ2R interactions (range in words): low–medium nM range
β-End 6–31: β-End 1–31 lacking the N-terminal met-enkephalin 1–5 sequence (TSEKSQTPLVTLFKNAIIKNAYKKGE; Beta-endorphin; UniProt P01189 242-267, looked up, fragment) | diminished σ1R-σ2R associations | 
β-End 22–31: nonphysiological C-terminal sequence of β-End 1–31 (IIKNAYKKGE; Beta-endorphin; UniProt P01189 258-267, looked up, fragment) | promoted their association | 
